Patent US20090155784A1, “ASSESSMENT OF ASTHMA AND ALLERGEN-DEPENDENT GENE EXPRESSION” (Wyeth, priority 2007, published 2009)

How the values were obtained:
human whole blood = human whole blood assay verifying inhibitory activity of the inhibitor samples; type: cell-based
[1] = system: PBMCs from healthy volunteers; assay: HG-U133A transcriptional profiling of allergen-stimulated PBMCs of healthy volunteers (HV/WHV), with and without cPLA2 inhibitor, 6 days culture; type: cell-based, human
Text: PBMCs were stimulated in vitro with a cocktail containing 4 different allergens from house dust mite, ragweed and cat. Recombinant allergens, Der p1, Der f2, Fel d1 (Indoor Biotech, Charlottesville, Va.) and natural ragweed allergen (Allergy Lab, Seattle, Wash.) were selected and screened for endotoxin contamination (LAL Endotoxin Test, Catalog #HIT302, sensitivity, 0.0001 Eu/ml, Cell Sciences, Canton, Mass.). The sensitivity of the subjects was unknown but the allergens were chosen based on the estimate that 80% of allergic individuals are believed to react to one or more of these allergens. Culture medium contained RPMI-1640 (Sigma) with 10% heat inactivated FCS (Sigma St. Louis, Mo.) and 100 unit/mL Penicillin and […] Streptomycin and 0.292 mg/mL Glutamine (GIBCO RL Invitrogen, Carlsbad, Calif.). The final allergen cocktail concentrations in culture medium were: Der p1 and Der f2 (dust mite), 1 mg/ml; Fel d1 (cat), 1.25 mg/ml; ragweed, 125 mg/ml. The total level of endotoxin contamination in culture medium was 0.057 Eu/ml. The cPLA2 inhibitor 4-{3-[1-benzhydryl-5-chloro-2-(2-{[(2,6-dimethylbenzyl)sulfonyl]amino}ethyl)-1H-indol-3-yl]propyl}benzoic acid was used at a concentration of 0.3 μM/ml. Zileuton, a 5-lipoxygenase inhibitor, was added at a concentration of 5 μM. The inhibitory activity of both the cPLA2 inhibitor and Zileuton samples were verified in a human whole blood assay. After 6 days in culture approximately 200 μL of supernatant was removed using an 8-channel pipettor without disturbing the cell pellet and placed into a collection plate for cytokine ELISA assays. To the remaining cell pellet 100 μL of RLT lysis buffer containing 1% beta-mercaptoethanol was added and snap frozen for RNA purification.
RNA was purified using QIA shredders and Rneasy mini kits (Qiagen, Valencia, Calif.). PBMC pellets frozen in RLT lysis buffer containing 1% β-mercaptoethanol were thawed and processed for total RNA isolation using the QIA shredder and RNeasy mini kit. A phenol:chloroform extraction was then performed, and the RNA was repurified using the RNeasy mini kit reagents. Eluted RNA was quantified using a Spectramax96 well plate UV reader (Molecular Devices, Sunnyvale, Calif., USA) monitoring A260/280 OD values. The quality of each RNA sample was assessed by capillary electrophoresis alongside an RNA molecular weight ladder on the Agilent 2100 bioanalyzer (Agilent Technologies, Palo Alto, Calif., USA). RNA samples were assigned quality values of intact (distinct 18S and 28S bands); partially degraded (discernible 18S and 28S bands with presence of low molecular weight bands) or completely degraded (no discernible 18S and 28S bands).
Labeled targets for oligonucleotide arrays were prepared using a modification of the procedure described by Lockhart et al. (Lockhart (1996) Nat. Biotechnol. 14:1675-80). Labeled targets were hybridized to the HG-U133A Affymetrix GeneChip Array as described in the Affymetrix technical manual. Eleven biotinylated control transcripts ranging in abundance from 3 parts per million (ppm) to 100 ppm were spiked into each sample to function as a standard curve (Hill (2001) Genome Biol. 2:RESEARCH0055). GeneChip MAS 5.0 software was used to evaluate the hybridization intensity, compute the signal value for each probe set and make an absent/present call.
GeneChips were required to pass the pre-set quality control criteria that the RNA quality metric required a 5′:3′ ratio. Two asthma subjects were excluded from the study due to failure to meet the RNA quality metric and 2 GeneChips from the group treated with cPLA2a inhibitor were excluded for the same reason. The signal value for each probe set was converted into a frequency value representative of the number of transcripts present in 10^6 transcripts by reference to the standard curve (Hill (2001) Genome Biol. 2:RESEARCH0055). […]

Structure (SMILES): Cc1cccc(C)c1CS(=O)(=O)NCCc1c(CCCc2ccc(C(=O)O)cc2)c2cc(Cl)ccc2n1C(c1ccccc1)c1ccccc1 [cPLA2 inhibitor, 4-{3-[1-benzhydryl-5-chloro-2-(2-{[(2,6-dimethylbenzyl)sulfonyl]amino}ethyl)-1H-indol-3-yl]propyl}benzoic acid]
- inhibitory activity in a human whole blood assay (human whole blood): verified
- genes down regulated in response to allergen in Network 1 in the healthy population ([1]; allergen + inhibitor, data not shown): brought up to non-allergen-stimulated background levels
- Fold Change WHV Allergen vs. cPLA2 inhibitor ([1]; gene C10ORF3, probeset 218542_at): −1.335
- Fold Change WHV Allergen vs. cPLA2 inhibitor ([1]; gene CDC2, probeset 203213_at): −1.258
- Fold Change WHV Allergen vs. cPLA2 inhibitor ([1]; gene CHIT1, probeset 208168_s_at): 2.013
- Fold Change WHV Allergen vs. cPLA2 inhibitor ([1]; gene DAB2, probeset 201279_s_at): 1.413
- Fold Change WHV Allergen vs. cPLA2 inhibitor ([1]; gene DAB2, probeset 210757_x_at): 1.326
- Fold Change WHV Allergen vs. cPLA2 inhibitor ([1]; gene DUSP4, probeset 204014_at): −1.388
- Fold Change WHV Allergen vs. cPLA2 inhibitor ([1]; gene DUSP4, probeset 204015_s_at): −1.157
- Fold Change WHV Allergen vs. cPLA2 inhibitor ([1]; gene FABP3, probeset 205738_s_at): −1.037
- Fold Change WHV Allergen vs. cPLA2 inhibitor ([1]; gene FLJ23311, probeset 219990_at): 1.042
- Fold Change WHV Allergen vs. cPLA2 inhibitor ([1]; gene GM2A, probeset 33646_g_at): 1.344
- Fold Change WHV Allergen vs. cPLA2 inhibitor ([1]; gene GM2A, probeset 209727_at): 1.211
- Fold Change WHV Allergen vs. cPLA2 inhibitor ([1]; gene HS3ST2, probeset 219697_at): 1.288
- Fold Change WHV Allergen vs. cPLA2 inhibitor ([1]; gene ME1, probeset 204059_s_at): 1.518
- Fold Change WHV Allergen vs. cPLA2 inhibitor ([1]; gene MELK, probeset 204825_at): −1.213
- Fold Change WHV Allergen vs. cPLA2 inhibitor ([1]; gene OIP5, probeset 213599_at): −1.067
- Fold Change WHV Allergen vs. cPLA2 inhibitor ([1]; gene PAPSS2, probeset 203060_s_at): 1.13
- Fold Change WHV Allergen vs. cPLA2 inhibitor ([1]; gene PLEKHB2, probeset 201411_s_at): 1.277
- Fold Change WHV Allergen vs. cPLA2 inhibitor ([1]; gene POLG, probeset 213007_at): −1.337
- Fold Change WHV Allergen vs. cPLA2 inhibitor ([1]; gene RACGAP1, probeset 222077_s_at): −1.108
- Fold Change WHV Allergen vs. cPLA2 inhibitor ([1]; gene RUVBL1, probeset 201614_s_at): −1.144
- Fold Change WHV Allergen vs. cPLA2 inhibitor ([1]; gene SLC36A1, probeset 213119_at): 1.279
- Fold Change WHV Allergen vs. cPLA2 inhibitor ([1]; gene SLC38A6, probeset 214830_at): 1.206
- Fold Change WHV Allergen vs. cPLA2 inhibitor ([1]; gene SLC39A14, probeset 212110_at): −1.568
- Fold Change WHV Allergen vs. cPLA2 inhibitor ([1]; gene SLCO2B1, probeset 203472_s_at): 1.211
- Fold Change WHV Allergen vs. cPLA2 inhibitor ([1]; gene SLCO2B1, probeset 203473_at): 1.237
- Fold Change WHV Allergen vs. cPLA2 inhibitor ([1]; gene SMC2L1, probeset 204240_s_at): −1.27
- Fold Change WHV Allergen vs. cPLA2 inhibitor ([1]; gene SN, probeset 219519_s_at): 1.618
- Fold Change WHV Allergen vs. cPLA2 inhibitor ([1]; gene TRIP13, probeset 204033_at): −1.317
- Fold Change WHV Allergen vs. cPLA2 inhibitor ([1]; gene UNK_AI859865, probeset 222036_s_at): −1.29
- Fold Change WHV Allergen vs. cPLA2 inhibitor ([1]; gene UNK_BE966236, probeset 201890_at): −1.202
